Here are results for five compounds from article PMC6602958, “Pharmacokinetics of anti-infectious reagents in silkworms” (Scientific Reports, 2019).

The structures appear in SMILES notation. Read-outs that look alike come from different tables or passages of the source. *1 amine or outer side, *2 acyl side, *3 side chain or, on linkers, in order; H or OH if unused. Where a SMILES comes first, the peptide text is derived from it. Bridges are numbered along the chain shown (N, C = ends). [ ]: non-standard residue; d: D form. The star is where a group is joined. hTyr(3S-OH,4S-OH,3'-OSO3H) = N[C@H](C(=O)O)[C@H](O)[C@@H](O)c1ccc(O)c(OS(=O)(=O)O)c1; Orn(4R-OH,5R-OH) = O=C([C@H](C[C@@H](O)[C@@H](O)N[*:3])N[*:1])[*:2]; Pro(3S-OH,4S-Me) = C[C@H]1CN[C@H](C(=O)O)[C@H]1O; X1 = CCCCCOc1ccc(-c2cc(-c3ccc(C(=O)*)cc3)no2)cc1; Gln(3R-OH) = NC(=O)C[C@@H](O)[C@H](N)C(=O)O; Hyp = O=C(O)[C@@H]1C[C@@H](O)CN1

For series [1], the system named is cytochrome P450. Put plainly: Metabolism of luciferin derivatives in cultured silkworm midgut (P450-Glo, luminometer). The series is classed as in vitro ADME, Bombyx mori (silkworm). To be noted: silkworm midgut incubated with luciferin substrate at 30 °C.
A short description of series [2]: Pharmacokinetics of antibiotics in silkworm hemolymph after injection (HPLC). As to conditions: for HPLC peak area in hemolymph: raw data of Fig. 1; for Time-course of the decrease in concentration in hemolymph (in words): after administration into hemolymph, alpha and beta phase; for Time-course of the decrease in concentration in hemolymph (in words) / Cltot (total body clearance): two-compartment model; for half-life: in vivo; for Cltot (total body clearance): silkworm, injection into hemolymph, dose per compound 10-50 mg/kg. On the procedure: Antibiotics were injected into silkworm hemolymph and hemolymph was collected by cutting the legs at the indicated time.
Antibiotics dissolved in saline were injected into the hemolymph of 5th instar silkworms using a 1-mL syringe attached to a 27 G needle. Hemolymph was harvested from abdominal appendages by cutting them with scissors at the indicated time-points after administration, and mixed with an equal volume of acetone. Samples were centrifuged at 15,000 rpm for 5 min at 4 °C, and the supernatants were evaporated with a centrifuge evaporator[18]. The dried materials were dissolved in 50% methanol and filtrated through a 0.45-µm filter. […] The amount of antibiotics in the sample was quantified from the peak area of the chromatogram.

On the set-up of series [3]: method as in PMID 15256761. As to conditions: rat, dose 1 mg/kg; cited from earlier work.
The test system of series [4] is cytochrome P450. Put plainly: Decay of cytochrome P450 substrates in in vitro culture of the silkworm midgut (HPLC). To be noted: for HPLC peak area of substrate, Sample 1 / HPLC peak area of substrate, Sample 2: silkworm (Bombyx mori); for HPLC peak area of substrate: midgut culture, raw data of Fig. 3. On the procedure:
Silkworm midgut was incubated in medium with cytochrome P450 substrates at 30 °C. The samples were collected, extracted by acetone, and evaporated. The amounts of substrates were determined by HPLC analysis.
Silkworms (5th instar, 5 days) were dissected in a buffer (10 mM HEPES/NaOH, 0.9% NaCl, pH 7.9), and isolated organs were incubated with 3 mL TC-100 medium containing 10% fetal bovine serum, 50 µg/ml gentamicin, and substrates for the metabolic reaction. Whole samples (medium and organ) were homogenized and extracted by equal volumes of acetone followed by evaporation. Extracted samples were dissolved in 50 mM NaOAc buffer and treated with beta-glucosidase to measure the fluorescence of metabolized 7-ethoxycoumarin[6]. […] Samples for HPLC were dissolved in 50% methanol. HPLC analysis was performed using a PEGASIL ODS SP column (φ4.5 mm × 250 mm) with isocratic elution at a flow rate of 1 ml/min.

The conditions of series [5]: mammal, dose 8 mg/kg; cited from earlier work.

For the compound `CC(C)OC(OC(C)C)C1CSC(c2nc3ccc(O)cc3s2)=N1` (stereo not drawn) [Luciferin-IPA], the “Production of luciferin (RFU/organ)” value with cytochrome P450 [1] is given as 198,000 RFU/organ.

With `CCCCCOc1ccc(-c2cc(-c3ccc(C(=O)N[C@H]4C[C@@H](O)[C@@H](O)NC(=O)[C@@H]5[C@@H](O)[C@@H](C)CN5C(=O)[C@H]([C@H](O)CC(N)=O)NC(=O)[C@H]([C@H](O)[C@@H](O)c5ccc(O)c(OS(=O)(=O)O)c5)NC(=O)[C@@H]5C[C@@H](O)CN5C(=O)[C@H]([C@@H](C)O)NC4=O)cc3)no2)cc1` [Micafungin] (X1-[Orn(4R-OH,5R-OH)]T[Hyp][hTyr(3S-OH,4S-OH,3'-OSO3H)][Gln(3R-OH)][Pro(3S-OH,4S-Me)]; lactam 1-C), the “HPLC peak area in hemolymph” value came out at 2078182 in series [2] (1 min after injection); 1273864 in series [2] (5 min after injection); 874882 in series [2] (20 min after injection); 1057083 in series [2] (45 min after injection); 1430059 in series [2] (60 min after injection); 1093500 in series [2] (75 min after injection). In addition, the “HPLC peak area in hemolymph” value is on record as 1117482 in series [2] (90 min after injection); 1017294 in series [2] (120 min after injection); 1043908 in series [2] (150 min after injection); 936752 in series [2] (180 min after injection); 1002362 in series [2] (240 min after injection); 970304 in series [2] (360 min after injection). Further, the “Time-course of the decrease in concentration in hemolymph (in words)” value in series [2] is recorded as “biphasic”. For the same compound, the half-life in series [2] was 12 h. Moreover, the “Cltot (total body clearance)” value in series [2] came out at 0.03 mL/g/h. The Cltot in series [3] was 0.07 mL/g/h. The Vdss in series [3] is 0.4 mL/g. The t1/2 in series [3] is recorded as 5.0 h.

With `COc1ccc2[nH]c([S+]([O-])Cc3ncc(C)c(OC)c3C)nc2c1` (stereo not drawn) [Omeprazole], in the series with cytochrome P450 [4], the “Metabolism in the silkworm midgut (in words)” value was “metabolized in the silkworm midgut”. For the same compound, the “HPLC peak area of substrate, Sample 1” value in the series on cytochrome P450 [4] (0 h) was found to be 141638; in the series with cytochrome P450 [4] (1 h) it was 117549; in the series on cytochrome P450 [4] (4 h), 57706; in the series on cytochrome P450 [4] (20 h) it was 8164. Besides, the “HPLC peak area of substrate, Sample 2” value in the series on cytochrome P450 [4] (0 h) is reported as 142171; in the series with cytochrome P450 [4] (1 h), 116381; in the series with cytochrome P450 [4] (4 h), 60668; in the series with cytochrome P450 [4] (20 h), 1815.

For `C[C@]12CC[C@H]3[C@@H](CCC4=CC(=O)CC[C@@]43C)[C@@H]1CC[C@@H]2O` [Testosterone], the “Metabolism in the silkworm midgut (in words)” value in the series on cytochrome P450 [4] (in vitro organ culture, up to 20 h incubation) is reported as “metabolized in the silkworm midgut”. The “HPLC peak area of substrate” value with cytochrome P450 [4] (0 h) worked out at 3160000; in the series with cytochrome P450 [4] (1 h), 1620000; in the series with cytochrome P450 [4] (4 h), 1110000; in the series on cytochrome P450 [4] (20 h), 1210000.

Regarding `CN[C@H](CC(C)C)C(=O)N[C@H]1C(=O)N[C@@H](CC(N)=O)C(=O)N[C@H]2C(=O)N[C@H]3C(=O)N[C@H](C(=O)N[C@H](C(=O)O)c4cc(O)cc(O)c4-c4cc3ccc4O)[C@H](O)c3ccc(c(Cl)c3)Oc3cc2cc(c3O[C@@H]2O[C@H](CO)[C@@H](O)[C@H](O)[C@H]2O[C@H]2C[C@](C)(N)[C@H](O)[C@H](C)O2)Oc2ccc(cc2Cl)[C@H]1O` [Vancomycin], the “HPLC peak area in hemolymph” value came out at 6413329 in series [2] (0 min after injection); 7258474 in series [2] (1 min after injection); 5965159 in series [2] (5 min after injection); 4477743 in series [2] (10 min after injection); 4233708 in series [2] (15 min after injection); 5070602 in series [2] (30 min after injection). Further, the “HPLC peak area in hemolymph” value in series [2] (45 min after injection) is listed as 4520231; in series [2] (60 min after injection) it was 4399183; in series [2] (90 min after injection), 3764336; in series [2] (120 min after injection), 4979100; in series [2] (180 min after injection), 4348972; in series [2] (240 min after injection) it was 4148058. Also, the “Time-course of the decrease in concentration in hemolymph (in words)” value in series [2] is listed as “biphasic”. Moreover, the half-life in series [2] was 13 h. The “Cltot (total body clearance)” value in series [2] turned out to be 0.03 mL/g/h. For the same compound, the Cltot in series [5] is 0.08 mL/g/h. For the same compound, in series [5], the Vdss was 0.6 mL/g. For the same compound, the t1/2 in series [5] is 2.6 h.
